Measured values: patent publication US8299126B2, “Treatment of canine hemangiosarcoma with a histone deacetylase inhibitor” (priority 2003, dated 2012)
Values joined by “and” are separate entries in the source; they are usually repeats but may differ in a detail not shown here. Equal values may be shown once. Read-outs that look alike come from different tables or passages of the source.

Assays:
[1] = Analyzed urine output: removal, half-life and metabolism of SAHA; type: in vivo
Description: (§1) Therefore, it may be possible with further studies to better understand the effect of SAHA on the vascularization of tumors, not only in canines, but perhaps in humans as well.

[2] = Follow-up blood chemistry and hematology of the SAHA-treated dog; type: in vivo, canine
Description: Approximately one month post-splenectomy, the dog was examined and found to be in good condition. […] The platelet count was above the normal range 550, (reference range, 100-450).
(§2) A little over 7 months post-splenectomy, the dog was examined for possible signs of metastasis by chest X-Ray, abdominal ultrasound, echogram, urinalysis and CBC.

General toxicity of SAHA = assay: General toxicity of SAHA
Description: The daily dosage of the compound of the present invention may vary according to a variety of factors such as underlying disease states, the individual's type, species, and medical condition, weight, sex, age, the severity of the condition to be treated; the route of administration; and the particular compound thereof employed. […] A physician or veterinarian of ordinary skill can readily determine and prescribe the effective amount of the drug required to prevent, counter or arrest the progress of the condition. Optimal precision in achieving concentrations of drug within the range that yields efficacy without toxicity requires a regimen based on the kinetics of the drug's availability to target sites. This involves consideration of the absorption, distribution, metabolism, and excretion of a drug, which are readily quantified.

[3] = tested on: human prostate cancer cells; details: mouse xenograft model (Butler et al. 2000); cited from earlier work
[4] = tested on: NMU-induced rat mammary tumors; details: cited from earlier work
canine hemangiosarcoma = type: in vivo
Procedure: The present invention is based in part on a case study of a dog having hemangiosarcoma. In the case study, SAHA was administered to the dog at a dose of 100 mg per day (about 3.3 mg/kg/day) post-splenectomy, mixed as a dry powder in dog food. The dog remains in good health more than 400 days post-splenectomy.
A 75 pound (33.75 kg), 12 year old female Rhodesian Ridgeback-Pit Bull mix was diagnosed with hemangiosarcoma. Symptoms included unexplained weakness, pale color to the mucous membranes of the mouth, lack of appetite and excessive consumption of water. The dog was brought to an emergency veterinary center, where X-ray and sonogram examination indicated a multi-lobulated mass on the spleen. An emergency splenectomy was performed, during which approximately 1 liter of blood was aspirated from the body cavity. There was no gross evidence of metastases in the liver or heart and a liver biopsy was taken. […] Nuclei were mildly pleomorphic, oval and had prominent nucleoli. Mitoses were occasionally present. Extramedullary hematopoiesis was present throughout and large areas of hemorrhage and necrosis was typical. The tumor was multifocal throughout the spleen. Pathology results were reported as hemangiosarcoma, grade 1, spleen, with a normal liver.
Starting approximately 2 weeks after splenectomy, when signs of weakness had re-appeared, SAHA was administered in the diet at 100 mg/day, 7 days/week. The dose was based on a rough extrapolation from rat studies. The diet consisted of a cup of standard pelleted dog food (Solid Gold, Hund-n-Flocken), a teaspoonful of brewers yeast (Foster and Smith, Rhinelander, Wis.), 1-2 ml of an essential fatty acid mixture containing n-6 and n-3 PUFA (Foster and Smith), and 2 tablespoonfuls of wet dog food (Pedigree®, Kal Kan Foods, Inc., CA), in which the SAHA was administered.
Within 24 hrs, there was an immediate, observable decrease in weakness and lethargy. […] For three months from diagnosis, the dog went through periods of high alertness and activity punctuated by brief periods of mild lethargy.
as §2

[5] = Stability at room temperature and solubility of the active compound; type: physicochemical
Description: Suitable preparations of such compositions include emulsions or solid forms suitable for emulsion. As used herein “solid forms” include powders and finely divided particles. Due to the insoluble nature of the active compound, e.g., SAHA, the preferred preparation is in the form of a powder.
as §1

hemangiosarcoma = details: canines, surgery and chemotherapy with doxorubicin; cited from earlier work
[6] = added to the diet, chemopreventive (Cohen et al., 1999)

O=C(CCCCCCC(=O)Nc1ccccc1)NO [SAHA, suberoylanilide hydroxamic acid]
half-life ([1]; from analyzed urine output): approximately three to four
removal from the body ([1]; from analyzed urine output): rapidly removed from the body
metabolism by the animal ([1]; in vivo): not readily metabolized
bands neutrophils ([2]; a little over 7 months post-splenectomy, range 0-3): 6
RBC ([2]; a little over 7 months post-splenectomy, range 5.5-8.5): 4.98 10^6/µL
segmented neutrophil ([2]; a little over 7 months post-splenectomy, range 32-36): 36.5
Hematocrit ([2]; a little over 7 months post-splenectomy, range 37-55): 35.3%
alkaline phosphatase ([2]; a little over 7 months post-splenectomy, reference range 10-150): 3 U/L
RBC ([2]; approximately one month post-splenectomy, range 5-8): 4.96 10^6/µL
hemoglobin ([2]; approximately one month post-splenectomy, range 14-21): 13.2 g/dL
LDH ([2]; approximately one month post-splenectomy, reference range 50-550): 49 U/L
platelet count ([2]; approximately one month post-splenectomy, reference range 100-450): 550 10^3/µL
toxicity (General toxicity of SAHA): almost no measurable toxicity other than possible fatigue at high doses
tumor growth [3]: inhibited tumor growth
effect on time of appearance, incidence, multiplicity and total number of NMU-induced rat mammary tumors [4, 6]: significantly inhibit
side effects [4, 6]: no deleterious side effects
effect on established rat mammary tumors ([4]; administered in the diet, chemotherapeutic (Cohen et al., 2002)): decrease the size, slow the growth rate and, in some cases, induce the complete regression
side effects ([4]; administered in the diet, established tumors (Cohen et al., 2002)): no toxic side effects
signs of decreased energy after dose increase (canine hemangiosarcoma; SAHA increased to 110 mg/day): no signs of decreased energy
signs of metastasis by chest X-Ray, abdominal ultrasound, echogram, urinalysis and CBC (canine hemangiosarcoma; a little over 7 months post-splenectomy): no evidence of dissemination
time to observable decrease in weakness and lethargy (canine hemangiosarcoma; after start of SAHA 100 mg/day in the diet, about 2 weeks after splenectomy): ≤ 24 h
time the dog remains in good health post-splenectomy (canine hemangiosarcoma; one dog with hemangiosarcoma, SAHA 100 mg per day (about 3.3 mg/kg/day), later 110 mg/day, in dog food): more than 400 days and 400 days
duration of suppression of metastatic dissemination of neoplastic endothelial cells post-splenectomy (canine hemangiosarcoma; one dog, SAHA daily in diet): 210 days
solubility [5]: insoluble
stability at room temperature ([5]; room temperature): stable at room temperature

COc1cccc2c1C(=O)c1c(O)c3c(c(O)c1C2=O)C[C@@](O)(C(=O)CO)C[C@@H]3O[C@H]1C[C@H](N)[C@H](O)[C@H](C)O1 [doxorubicin]
prognosis once diagnosed (hemangiosarcoma): less than six
